Converted amounts (≈) assume the structure as drawn. Each block holds one molecule with its values, some of them ahead of it. The source made the active and inactive calls. No cut-off for these calls is given here.
Key:
Pseudomonas aeruginosa [1] = test: Antimicrobial activity against Pseudomonas aeruginosa 26305 clinical isolates after 24 hrs by NCCLS-protocol based assay; type: functional; settings: Pseudomonas aeruginosa, 26305, 24 h
Escherichia coli [2] = test: Bactericidal activity against Escherichia coli ATCC 25922 incubated for 4 hrs followed by culture spread on agar plates and cultured overnight in presence of 2 mg/ml trypsin; type: functional; settings: ATCC 25922, 4 h, read-out: MBC>99.9
HEK-293T = test: Cytotoxicity against HEK293T cells assessed as cell death after 18 to 24 hrs by MTT assay; type: cell-based; settings: Homo sapiens
Escherichia coli [3] = test: Bactericidal activity against Escherichia coli K88 incubated for 4 hrs followed by culture spread on agar plates and cultured overnight; type: functional; settings: K88, 4 h, read-out: MBC>99.9
Salmonella typhimurium [4] = test: Antimicrobial activity against Salmonella typhimurium C7731 after 24 hrs by NCCLS-protocol based assay; type: functional, Salmonella enterica subsp. enterica serovar Typhimurium; settings: Salmonella enterica, C7731, 24 h
Escherichia coli [5] = test: Bactericidal activity against Escherichia coli UB1005 incubated for 4 hrs followed by culture spread on agar plates and cultured overnight; type: functional; settings: UB1005, 4 h, read-out: MBC>99.9
Pseudomonas aeruginosa [6] = test: Antimicrobial activity against Pseudomonas aeruginosa PAO1 after 24 hrs by NCCLS-protocol based assay; type: functional; settings: PAO1, 24 h
RAW264.7 = test: Cytotoxicity against mouse RAW264.7 cells assessed as cell death after 18 to 24 hrs by MTT assay; type: cell-based
Pseudomonas aeruginosa [7] = test: Antimicrobial activity against Pseudomonas aeruginosa 25349 clinical isolates after 24 hrs by NCCLS-protocol based assay; type: functional; settings: Pseudomonas aeruginosa, 25349, 24 h
Salmonella typhimurium [8] = test: Bactericidal activity against Salmonella typhimurium ATCC 14028 incubated for 4 hrs followed by culture spread on agar plates and cultured overnight; type: functional, Salmonella enterica subsp. enterica serovar Typhimurium; settings: Salmonella enterica, ATCC 14028, 4 h; read-out: MBC>99.9
Acinetobacter baumannii = test: Bactericidal activity against Acinetobacter baumannii incubated for 4 hrs followed by culture spread on agar plates and cultured overnight; type: functional; settings: read-out: MBC>99.9
Escherichia coli [9] = test: Bactericidal activity against Escherichia coli ATCC 25922 incubated for 4 hrs followed by culture spread on agar plates and cultured overnight; type: functional; settings: ATCC 25922, 4 h, read-out: MBC>99.9
Escherichia coli [10] = test: Bactericidal activity against Escherichia coli ATCC 25922 incubated for 4 hrs followed by culture spread on agar plates and cultured overnight in presence of CaCl2; type: functional; settings: ATCC 25922, 4 h, read-out: MBC>99.9
Escherichia coli [11] = test: Bactericidal activity against Escherichia coli ATCC 25922 incubated for 4 hrs followed by culture spread on agar plates and cultured overnight in presence of 0.5 mg/ml trypsin; type: functional; settings: ATCC 25922, 4 h, read-out: MBC>99.9
Pseudomonas aeruginosa [12] = test: Antimicrobial activity against Pseudomonas aeruginosa CICC 21630 clinical isolates after 24 hrs by NCCLS-protocol based assay; type: functional; settings: CICC 21630, 24 h
Escherichia coli [13] = test: Antimicrobial activity against Escherichia coli ATCC 25922 after 24 hrs by NCCLS-protocol based assay; type: functional; settings: ATCC 25922, 24 h
[14] = Selectivity ratio of IC50 for mouse RAW264.7 cells to geometric mean of the peptide MBC for bacteria
Pseudomonas aeruginosa [15] = test: Antimicrobial activity against Pseudomonas aeruginosa CICC 21625 clinical isolates after 24 hrs by NCCLS-protocol based assay; type: functional; settings: CICC 21625, 24 h
[16] = Selectivity ratio of IC50 for HEK293T cells to geometric mean of the peptide MBC for bacteria
Pseudomonas aeruginosa [17] = test: Bactericidal activity against Pseudomonas aeruginosa ATCC 27853 incubated for 4 hrs followed by culture spread on agar plates and cultured overnight; type: functional; settings: ATCC 27853, 4 h, read-out: MBC>99.9
[18] = Bactericidal activity against Salmonella pullorum C7913 incubated for 4 hrs followed by culture spread on agar plates and cultured overnight; type: functional, Salmonella enterica subsp. enterica serovar Pullorum; settings: Salmonella enterica, C7913, 4 h; read-out: MBC>99.9
Escherichia coli [19] = test: Bactericidal activity against Escherichia coli ATCC 25922 incubated for 4 hrs followed by culture spread on agar plates and cultured overnight in presence of 0.125 mg/ml chymotrypsin; type: functional; settings: ATCC 25922, 4 h, read-out: MBC>99.9
Escherichia coli [20] = test: Bactericidal activity against Escherichia coli ATCC 25922 incubated for 4 hrs followed by culture spread on agar plates and cultured overnight in presence of 4 mg/ml chymotrypsin; type: functional; settings: ATCC 25922, 4 h, read-out: MBC>99.9
[21] = Antimicrobial activity against Salmonella pullorum C7913 after 24 hrs by NCCLS-protocol based assay; type: functional, Salmonella enterica subsp. enterica serovar Pullorum; settings: Salmonella enterica, C7913, 24 h
Escherichia coli [22] = test: Bactericidal activity against Escherichia coli ATCC 25922 incubated for 4 hrs followed by culture spread on agar plates and cultured overnight in presence of KCl; type: functional; settings: ATCC 25922, 4 h, read-out: MBC>99.9
Escherichia coli [23] = test: Bactericidal activity against Escherichia coli ATCC 25922 incubated for 4 hrs followed by culture spread on agar plates and cultured overnight in presence of 0.25 mg/ml trypsin; type: functional; settings: ATCC 25922, 4 h, read-out: MBC>99.9
Escherichia coli [24] = test: Antimicrobial activity against Escherichia coli UB1005 after 24 hrs by NCCLS-protocol based assay; type: functional; settings: UB1005, 24 h
Escherichia coli [25] = test: Bactericidal activity against Escherichia coli ATCC 25922 incubated for 4 hrs followed by culture spread on agar plates and cultured overnight in presence of 0.125 mg/ml trypsin; type: functional; settings: ATCC 25922, 4 h, read-out: MBC>99.9
Pseudomonas aeruginosa [26] = test: Antimicrobial activity against Pseudomonas aeruginosa ATCC 27853 after 24 hrs by NCCLS-protocol based assay; type: functional; settings: ATCC 27853, 24 h
Pseudomonas aeruginosa [27] = test: Bactericidal activity against Pseudomonas aeruginosa 26305 clinical isolates incubated for 4 hrs followed by culture spread on agar plates and cultured overnight; type: functional; settings: Pseudomonas aeruginosa, 26305, 4 h; read-out: MBC>99.9
Escherichia coli [28] = test: Bactericidal activity against Escherichia coli ATCC 25922 incubated for 4 hrs followed by culture spread on agar plates and cultured overnight in presence of 1 mg/ml chymotrypsin; type: functional; settings: ATCC 25922, 4 h, read-out: MBC>99.9
Pseudomonas aeruginosa [29] = test: Bactericidal activity against Pseudomonas aeruginosa 25349 clinical isolates incubated for 4 hrs followed by culture spread on agar plates and cultured overnight; type: functional; settings: Pseudomonas aeruginosa, 25349, 4 h; read-out: MBC>99.9
Pseudomonas aeruginosa [30] = test: Bactericidal activity against Pseudomonas aeruginosa CICC 21630 clinical isolates incubated for 4 hrs followed by culture spread on agar plates and cultured overnight; type: functional; settings: CICC 21630, 4 h, read-out: MBC>99.9
[31] = Selectivity ratio of IC50 for pig IPECJ2 cells to geometric mean of the peptide MBC for bacteria
[32] = Stability of the compound assessed as pepsin (unknown origin)-mediated compound hydrolysis after 8 hrs by SDS-PAGE analysis; type: ADME; settings: human
[33] = Cytotoxicity against IPECJ2 cells assessed as cell death after 18 to 24 hrs by MTT assay; type: cell-based; settings: Sus scrofa, IPEC-J2
Escherichia coli [34] = test: Bactericidal activity against Escherichia coli ATCC 25922 incubated for 4 hrs followed by culture spread on agar plates and cultured overnight in presence of 4 mg/ml pepsin; type: functional, organism-based

Molecule: CC[C@H](C)[C@H](NC(=O)CN)C(=O)NCC(=O)N[C@@H](C)C(=O)N[C@H](C(=O)N[C@@H](CC(C)C)C(=O)N[C@@H](CCCCN)C(=O)N[C@H](C(=O)N[C@@H](CC(C)C)C(=O)N[C@H](C(=O)N[C@H](C(=O)NCC(=O)N[C@@H](CC(C)C)C(=O)N1CCC[C@H]1C(=O)N[C@@H](C)C(=O)N[C@@H](CC(C)C)C(=O)N[C@H](C(=O)N[C@@H](CO)C(=O)N[C@@H](Cc1c[nH]c2ccccc12)C(=O)N[C@H](C(=O)N[C@@H](CCCCN)C(=O)N[C@@H](CCCNC(=N)N)C(=O)N[C@@H](CCCCN)C(=O)N[C@@H](CCCNC(=N)N)C(=O)N[C@@H](CCC(N)=O)C(=O)N[C@@H](CCC(N)=O)C(N)=O)[C@@H](C)CC)[C@@H](C)CC)[C@@H](C)O)[C@@H](C)O)C(C)C)C(C)C [MELITTIN]
MIC95 (Pseudomonas aeruginosa [1]): 2 µM (≈ 5.69 µg/mL)
MBC (Escherichia coli [2]): > 64 µM
IC50 (HEK-293T): 0.00248 mM
MBC (Escherichia coli [3]): 1 µM (≈ 2.85 µg/mL)
MIC95 (Salmonella typhimurium [4]): 1 µM (≈ 2.85 µg/mL)
MBC (Escherichia coli [5]): 2 µM (≈ 5.69 µg/mL)
MIC95 (Pseudomonas aeruginosa [6]): 2 µM (≈ 5.69 µg/mL)
IC50 (RAW264.7): 0.00209 mM
MIC95 (Pseudomonas aeruginosa [7]): 2 µM (≈ 5.69 µg/mL)
MBC (Salmonella typhimurium [8]): 2 µM (≈ 5.69 µg/mL)
MBC (Acinetobacter baumannii): 1 µM (≈ 2.85 µg/mL)
MBC (Escherichia coli [9]): 2 µM (≈ 5.69 µg/mL)
MBC (Escherichia coli [10]): 8 µM
MBC (Escherichia coli [11]): 4 µM
MIC95 (Pseudomonas aeruginosa [12]): 4 µM (≈ 11.4 µg/mL)
MIC95 (Escherichia coli [13]): 2 µM (≈ 5.69 µg/mL)
Ratio [14]: 0.96
MIC95 (Pseudomonas aeruginosa [15]): 4 µM (≈ 11.4 µg/mL)
Ratio [16]: 1.14
MBC (Pseudomonas aeruginosa [17]): 4 µM (≈ 11.4 µg/mL)
MBC [18]: 4 µM (≈ 11.4 µg/mL)
MBC (Escherichia coli [19]): 2 µM
MBC (Escherichia coli [20]): > 64 µM
MIC95 [21]: 2 µM (≈ 5.69 µg/mL)
MBC (Escherichia coli [22]): 2 µM
MBC (Escherichia coli [23]): 2 µM
MIC95 (Escherichia coli [24]): 2 µM (≈ 5.69 µg/mL)
MBC (Escherichia coli [25]): 2 µM
MIC95 (Pseudomonas aeruginosa [26]): 2 µM (≈ 5.69 µg/mL)
MBC (Pseudomonas aeruginosa [27]): 2 µM (≈ 5.69 µg/mL)
MBC (Escherichia coli [28]): > 64 µM
MBC (Pseudomonas aeruginosa [29]): 4 µM (≈ 11.4 µg/mL)
MBC (Pseudomonas aeruginosa [30]): 4 µM (≈ 11.4 µg/mL)
Ratio [31]: 1.31

MIC95 (Pseudomonas aeruginosa [1]): > 64 µM
MIC95 (Salmonella typhimurium [4]): 64 µM
MIC95 (Pseudomonas aeruginosa [6]): > 64 µM
MIC95 (Pseudomonas aeruginosa [7]): > 64 µM
MIC95 (Pseudomonas aeruginosa [12]): > 64 µM
Stability [32]: Unstable
MIC95 (Escherichia coli [13]): 8 µM
MIC95 (Pseudomonas aeruginosa [15]): > 64 µM
MIC95 [21]: 64 µM
MIC95 (Escherichia coli [24]): 4 µM
MIC95 (Pseudomonas aeruginosa [26]): > 64 µM
Molecule: H-IKPIIKPIIKPIIKPIIKPIIKPIIKPI-NH2
MBC (Escherichia coli [2]): 16 µM
IC50 (HEK-293T): 5.92 mM
MBC (Escherichia coli [3]): 2 µM
MBC (Escherichia coli [5]): 4 µM
IC50 (RAW264.7): 2.75 mM
MBC (Salmonella typhimurium [8]): > 64 µM
MBC (Acinetobacter baumannii): 2 µM
MBC (Escherichia coli [9]): 16 µM
MBC (Escherichia coli [10]): > 128 µM
MBC (Escherichia coli [11]): 16 µM
Ratio [14]: 75.44
Ratio [16]: 162.49
MBC (Pseudomonas aeruginosa [17]): > 64 µM
MBC [18]: > 64 µM
IC50 [33]: 345 µM
MBC (Escherichia coli [19]): 16 µM
MBC (Escherichia coli [20]): 16 µM
MBC (Escherichia coli [22]): 32 µM
MBC (Escherichia coli [23]): 16 µM
Activity (Escherichia coli [34]): inactive
MBC (Escherichia coli [25]): 16 µM
MBC (Pseudomonas aeruginosa [27]): > 64 µM
MBC (Escherichia coli [28]): 16 µM
MBC (Pseudomonas aeruginosa [29]): > 64 µM
MBC (Pseudomonas aeruginosa [30]): > 64 µM
Ratio [31]: 9.46

Reference: ChEMBL document CHEMBL4316596, “Antimicrobial Peptides with High Proteolytic Resistance for Combating Gram-Negative Bacteria” (J Med Chem, 2019)
